Assay results from patent US11981661B2, “Heterocyclic compounds” (Hoffmann-La Roche Inc., priority 2020, dated 2024).
pIC50: −log10 of the molar value.

molecular target: T1, MAGL (Homo sapiens, UniProt Q99685); test: 2-AG assay (MAGL inhibitory activity, hydrolysis of 2-arachidonoylglycerol followed by mass spectrometry); type: biochemical; conditions: 50 pM MAGL, 8 μM 2-arachidonoylglycerol, 15 min preincubation, 30 min incubation at RT, concentration range 12.5 μM to 0.8 pM
T1 sequence (Q99685 1-303): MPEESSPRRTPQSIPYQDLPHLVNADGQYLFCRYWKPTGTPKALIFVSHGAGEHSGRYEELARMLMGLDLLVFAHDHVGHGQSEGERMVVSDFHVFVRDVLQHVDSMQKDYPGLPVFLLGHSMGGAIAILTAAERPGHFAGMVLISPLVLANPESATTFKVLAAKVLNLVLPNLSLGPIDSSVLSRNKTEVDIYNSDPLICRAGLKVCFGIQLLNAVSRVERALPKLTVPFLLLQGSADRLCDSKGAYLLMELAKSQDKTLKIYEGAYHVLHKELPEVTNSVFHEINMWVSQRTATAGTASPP
Method: Compounds were profiled for MAGL inhibitory activity by determining the enzymatic activity by following the hydrolysis of the natural substrate 2-arachidonoylglycerol resulting in arachidonic acid, which can be followed by mass spectrometry. This assay is hereinafter abbreviated “2-AG assay”.
The 2-AG assay was carried out in 384 well assay plates (PP, Greiner Cat #784201) in a total volume of 20 μL. Compound dilutions were made in 100% DMSO (VWR Chemicals 23500.297) in a polypropylene plate in 3-fold dilution steps to give a final concentration range in the assay from 12.5 μM to 0.8 pM. 0.25 μL compound dilutions (100% DMSO) were added to 9 μL MAGL in assay buffer (50 mM TRIS (GIBCO, 15567-027), 1 mM EDTA (Fluka, 03690-100 mL), 0.01% (v/v) Tween. After shaking, the plate was incubated for 15 min at RT. To start the reaction, 10 μL 2-arachidonoylglycerol in assay buffer was added. The final concentrations in the assay was 50 pM MAGL and 8 μM 2-arachidonoylglyerol. After shaking and 30 min incubation at RT, the reaction was quenched by the addition of 40 μL of ACN containing 4 μM of d8-arachidonic acid. The amount of arachidonic acid was traced by an online SPE system (Agilent Rapidfire) coupled to a triple quadrupole mass spectrometer (Agilent 6460). A C18 SPE cartridge (G9205A) was used in an ACN/water liquid setup. The mass spectrometer was operated in negative electrospray mode following the mass transitions 303.1→259.1 for arachidonic acid and 311.1→267.0 for d8-arachidonic acid. The activity of the compounds was calculated based on the ratio of intensities [arachidonic acid/d8-arachidonic acid].

pIC50	SMILES
6.54	O=C1COCC(CCC(=O)N2CC(OCc3ccc(C(F)(F)F)cc3F)C2)N1 (single isomer, unassigned; (+)) [Example 51, (+)-5-[3-[3-[[2-Fluoro-4-(trifluoromethyl)phenyl]methoxy]azetidin-1-yl]-3-oxo-propyl]morpholin-3-one]
≤ 4.90	O=C1COCC(CCC(=O)N2CC(OCc3ccc(C(F)(F)F)cc3F)C2)N1 (single isomer, unassigned; (-)) [Example 50, (−)-5-[3-[3-[[2-Fluoro-4-(trifluoromethyl)phenyl]methoxy]azetidin-1-yl]-3-oxo-propyl]morpholin-3-one]
8.15	O=C1N[C@H](CCC(=O)N2CC(OCc3ccc(C(F)(F)F)cc3F)C2)CO1 [Example 20, (4R)-4-[3-[3-[[2-Fluoro-4-(trifluoromethyl)phenyl]methoxy]azetidin-1-yl]-3-oxo-propyl]oxazolidin-2-one]
6.60	O=C1N[C@@H](CCC(=O)N2CC(c3ccc(C4(C(F)(F)F)CC4)cc3)C2)CO1 [Example 21, (4S)-4-[3-Oxo-3-[3-[4-[1-(trifluoromethyl)cyclo-propyl]phenyl]azetidin-1-yl]propyl]oxazolidin-2-one]
9.00	O=C1N[C@H](CCC(=O)N2CC(c3ccc(C4(C(F)(F)F)CC4)cc3)C2)CO1 [Example 22, (4R)-4-[3-Oxo-3-[3-[4-[1-(trifluoromethyl)cyclo-propyl]phenyl]azetidin-1-yl]propyl]oxazolidin-2-one]
6.42	O=C1N[C@@H](CCC(=O)N2CC(c3ccc(-c4ccc(F)cc4F)cc3)C2)CO1 [Example 23, (4S)-4-[3-[3-[4-(2,4-Difluorophenyl)phenyl]azetidin-1-yl]-3-oxo-propyl]oxazolidin-2-one]
8.70	O=C1N[C@H](CCC(=O)N2CC(c3ccc(-c4ccc(F)cc4F)cc3)C2)CO1 [Example 24, (4R)-4-[3-[3-[4-(2,4-Difluorophenyl)phenyl]azetidin-1-yl]-3-oxo-propyl]oxazolidin-2-one]

Continued, compound first:

SMILES	pIC50
O=C1CCC(CCC(=O)N2CC(OCc3ccc(C(F)(F)F)cc3F)C2)N1 (single isomer, unassigned; (-)) [Example 1, (−)-5-[3-[3-[[2-Fluoro-4-(trifluoromethyl)phenyl]methoxy]azetidin-1-yl]-3-oxo-propyl]pyrrolidin-2-one]	5.40
CC(C)(C)c1ccc(C2CN(C(=O)CCC3CCC(=O)N3)C2)cc1 (single isomer, unassigned; (-)) [Example 3, (−)-5-[3-[3-(4-tert-Butylphenyl)azetidin-1-yl]-3-oxo-propyl]pyrrolidin-2-one]	6.56
O=C1CCC(CCC(=O)N2CC(c3ccc(C4(C(F)(F)F)CC4)cc3)C2)N1 (single isomer, unassigned; (-)) [Example 5, (−)-5-[3-Oxo-3-[3-[4-[1-(trifluoromethyl)cyclopropyl]phenyl]azetidin-1-yl]propyl]pyrrolidin-2-one]	6.20
O=C1CCC(CCC(=O)N2CC(c3ccc(-c4ccc(F)cc4F)cc3)C2)N1 (single isomer, unassigned; (-)) [Example 9, (−)-5-[3-[3-[4-(2,4-Difluorophenyl)phenyl]azetidin-1-yl]-3-oxo-propyl]pyrrolidin-2-one]	6.26
O=C1CCC(CCC(=O)N2C[C@@H]3CN(Cc4ccc(C(F)(F)F)cc4F)C[C@H]3C2)N1 (single isomer, unassigned; (-)) [Example 11]	≤ 4.90
CC1(CCC(=O)N2CC(OCc3ccc(C(F)(F)F)cc3F)C2)CCC(=O)N1 (stereo not drawn) [Example 14, (+)- or (−)-5-[3-[3-[[2-Fluoro-4-(trifluoromethyl)phenyl]methoxy]azetidin-1-yl]-3-oxo-propyl]-5-methyl-pyrrolidin-2-one]	5.68
O=C1N[C@@H](CCC(=O)N2CC(OCc3ccc(C(F)(F)F)cc3F)C2)CO1 [Example 19, (4S)-4-[3-[3-[[2-Fluoro-4-(trifluoromethyl)phenyl]methoxy]azetidin-1-yl]-3-oxo-propyl]oxazolidin-2-one]	5.81
